9 compounds from publication PMC4083421 (Nature Communications, 2014) can be followed below.

Common to all, as to format: binding
Assay [1] has as its target T1, 1LysM module of AtlA (Enterococcus faecalis, UniProt P37710). Put plainly: biochemical.
A further assay has as its target T2, L1–L6 (Enterococcus faecalis, UniProt P37710).
T2 sequence (P37710 338-737): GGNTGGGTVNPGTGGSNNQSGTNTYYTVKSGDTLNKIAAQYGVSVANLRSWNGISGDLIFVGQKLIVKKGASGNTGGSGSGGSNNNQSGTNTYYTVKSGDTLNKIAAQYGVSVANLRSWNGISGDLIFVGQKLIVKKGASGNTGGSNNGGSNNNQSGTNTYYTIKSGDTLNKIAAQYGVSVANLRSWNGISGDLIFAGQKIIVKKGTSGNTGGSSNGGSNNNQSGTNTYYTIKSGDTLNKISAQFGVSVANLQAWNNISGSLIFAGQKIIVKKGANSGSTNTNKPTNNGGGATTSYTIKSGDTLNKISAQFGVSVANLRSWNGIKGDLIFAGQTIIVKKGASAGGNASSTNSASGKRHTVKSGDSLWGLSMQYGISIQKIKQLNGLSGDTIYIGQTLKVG
Put plainly: Steady-state SPR. The conditions noted are these: SD.

The next assay addresses T3, L1L2L3 (Enterococcus faecalis, UniProt P37710).
T3 sequence (P37710 338-542 A476S/S477A): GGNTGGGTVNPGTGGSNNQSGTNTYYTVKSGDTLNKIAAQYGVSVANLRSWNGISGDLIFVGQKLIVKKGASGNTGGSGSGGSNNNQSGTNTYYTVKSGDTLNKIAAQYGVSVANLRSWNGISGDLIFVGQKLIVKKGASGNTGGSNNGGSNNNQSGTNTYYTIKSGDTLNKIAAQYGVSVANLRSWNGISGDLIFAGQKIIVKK
Kind of assay: Steady-state SPR. The conditions noted are these: SD.

The target in a further assay is L1L2 (Enterococcus faecalis, UniProt P37710). Put plainly: Steady-state SPR.
In another assay the target is L1 (Enterococcus faecalis, UniProt P37710). Kind of assay: Steady-state SPR.
Assay [2] addresses T4, 1 (1LysM, WT) (Enterococcus faecalis, UniProt P37710). Kind of assay: Steady-state SPR.
Assay [3] deals with T1, 1LysM module of AtlA. Put plainly: biochemical. Conditions: Apparent KD to 1LysM (SPR), single LysM module; ± standard deviation.
The target of assay [4] is T4, 1 (1LysM, WT). Kind of assay: SPR.

Each structure is given as a SMILES string. Where two headings read alike, the source gives them in different places.

Turning to `CC(=O)N[C@H]1[C@H](O[C@H]2[C@H](O[C@H](C)C(=O)O)[C@@H](NC(C)=O)C(O)O[C@@H]2CO)O[C@H](CO)[C@@H](O[C@@H]2O[C@H](CO)[C@@H](O[C@@H]3O[C@H](CO)[C@@H](O)[C@H](O)[C@H]3NC(C)=O)[C@H](O[C@H](C)C(=O)O)[C@H]2NC(C)=O)[C@@H]1O` (stereo partly drawn) [(GlcNAc-MurNAc)2, (GlcNAc-β−1,4-MurNAc)2], the Kd at 1LysM module of AtlA [1] is 650 µM.

Turning to `CC(=O)N[C@H]1[C@H](O[C@H]2[C@H](O)[C@@H](NC(C)=O)C(O)O[C@@H]2CO)O[C@H](CO)[C@@H](O)[C@@H]1O` (stereo partly drawn) [GlcNAc2, chitobiose (di-N-acetylchitobiose, beta-1,4-linked GlcNAc dimer)], the Kd at L1–L6 was 4420 µM; at L1L2L3, 7100 µM; at L1L2, more than 5000 µM; at L1, more than 5000 µM; on 1 (1LysM, WT) [2], more than 5000 µM.

As to `CC(=O)N[C@H]1[C@H](O[C@H]2[C@H](O)[C@@H](NC(C)=O)C(O)O[C@@H]2CO)O[C@H](CO)[C@@H](O[C@@H]2O[C@H](CO)[C@@H](O)[C@H](O)[C@H]2NC(C)=O)[C@@H]1O` (stereo partly drawn) [GlcNAc3, chitotriose (tri-N-acetylchitotriose, beta-1,4-linked GlcNAc trimer)], the Kd at L1–L6 came out at 702 ± 87.7 µM; at L1L2L3, 628 ± 32.8 µM; on L1L2 (SD) it was 678 ± 57.3 µM; on L1 (SD), 453 ± 58.6 µM.

As for `CC(=O)N[C@H]1[C@H](O[C@H]2[C@H](O)[C@@H](NC(C)=O)C(O)O[C@@H]2CO)O[C@H](CO)[C@@H](O[C@@H]2O[C@H](CO)[C@@H](O)[C@H](O)[C@H]2NC(C)=O)[C@@H]1O` (stereo partly drawn) [GlcNAc3], at 1LysM module of AtlA [3], the Kd came out at 408 ± 80.8 µM.

As for `CC(=O)N[C@H]1[C@H](O[C@H]2[C@H](O)[C@@H](NC(C)=O)C(O)O[C@@H]2CO)O[C@H](CO)[C@@H](O[C@@H]2O[C@H](CO)[C@@H](O[C@@H]3O[C@H](CO)[C@@H](O)[C@H](O)[C@H]3NC(C)=O)[C@H](O)[C@H]2NC(C)=O)[C@@H]1O` (stereo partly drawn) [GlcNAc4, chitotetraose (tetra-N-acetylchitotetraose, beta-1,4-linked GlcNAc tetramer)], the Kd came to 18.6 ± 4.5 µM on L1–L6, 22.3 ± 1.8 µM at L1L2L3, 38.1 ± 2.8 µM at L1L2 (SD) and 50.4 ± 4.1 µM on L1 (SD).

For `CC(=O)N[C@H]1[C@H](O[C@H]2[C@H](O)[C@@H](NC(C)=O)C(O)O[C@@H]2CO)O[C@H](CO)[C@@H](O[C@@H]2O[C@H](CO)[C@@H](O[C@@H]3O[C@H](CO)[C@@H](O)[C@H](O)[C@H]3NC(C)=O)[C@H](O)[C@H]2NC(C)=O)[C@@H]1O` (stereo partly drawn) [GlcNAc4, reference compound], the Kd at 1LysM module of AtlA [3] was 43.4 ± 3 µM; at 1LysM module of AtlA [1], 90 µM.

In the case of `CC(=O)N[C@H]1[C@H](O[C@H]2[C@H](O)[C@@H](NC(C)=O)[C@H](O[C@H]3[C@H](O)[C@@H](NC(C)=O)C(O)O[C@@H]3CO)O[C@@H]2CO)O[C@H](CO)[C@@H](O[C@@H]2O[C@H](CO)[C@@H](O[C@@H]3O[C@H](CO)[C@@H](O)[C@H](O)[C@H]3NC(C)=O)[C@H](O)[C@H]2NC(C)=O)[C@@H]1O` (stereo partly drawn) [GlcNAc5, chitopentaose (penta-N-acetylchitopentaose, beta-1,4-linked GlcNAc pentamer)], the Kd on L1–L6 amounted to 2.2 ± 0.3 µM; on L1L2L3, 4.6 ± 0.4 µM; on L1L2 (SD), 9.6 ± 0.8 µM; at L1 (SD), 12.1 ± 1.4 µM; at 1 (1LysM, WT) [4] it was 11.7 ± 1.7 µM.

For the compound `CC(=O)N[C@H]1[C@H](O[C@H]2[C@H](O)[C@@H](NC(C)=O)[C@H](O[C@H]3[C@H](O)[C@@H](NC(C)=O)C(O)O[C@@H]3CO)O[C@@H]2CO)O[C@H](CO)[C@@H](O[C@@H]2O[C@H](CO)[C@@H](O[C@@H]3O[C@H](CO)[C@@H](O[C@@H]4O[C@H](CO)[C@@H](O)[C@H](O)[C@H]4NC(C)=O)[C@H](O)[C@H]3NC(C)=O)[C@H](O)[C@H]2NC(C)=O)[C@@H]1O` (stereo partly drawn) [GlcNAc6, chitohexaose (hexa-N-acetylchitohexaose, beta-1,4-linked GlcNAc hexamer)], the Kd worked out at 1.5 ± 0.1 µM at L1–L6, 3 ± 0.1 µM at L1L2L3, 5 ± 0.3 µM on L1L2 (SD) and 5.6 ± 0.5 µM at L1 (SD).

With `CC(=O)N[C@H]1[C@H](O[C@H]2[C@H](O)[C@@H](NC(C)=O)[C@H](O[C@H]3[C@H](O)[C@@H](NC(C)=O)C(O)O[C@@H]3CO)O[C@@H]2CO)O[C@H](CO)[C@@H](O[C@@H]2O[C@H](CO)[C@@H](O[C@@H]3O[C@H](CO)[C@@H](O[C@@H]4O[C@H](CO)[C@@H](O)[C@H](O)[C@H]4NC(C)=O)[C@H](O)[C@H]3NC(C)=O)[C@H](O)[C@H]2NC(C)=O)[C@@H]1O` (stereo partly drawn) [GlcNAc6], the Kd on 1LysM module of AtlA [3] was determined as 6 ± 0.8 µM.
